Reference: US11426473B2, “Nitrogen-containing compound or salt thereof, or metal complex thereof” (FUJIFILM Corporation, priority 2013, dated 2022)

Columns and labels:
Integrin αvβ5 = target: T1, Integrin αvβ5 (Homo sapiens, UniProt P06756+P18084); assay: Integrin αvβ5 binding affinity test; details: inhibition of biotinylated vitronectin binding to immobilized αvβ5; read-out: IC50 value αvβ5
T1 construct: purchased Chemicon International, Inc
Procedure: (§1) […] αvβ5 (Chemicon International, Inc.) was immobilized on each well of a 96-well plate (Corning Inc.). Each well was blocked with a 1% Block Ace (DS Pharma Biomedical Co., Ltd) solution and then washed with PBST (10 mM Na2HPO4 pH 7.5, 150 mM NaCl, and 0.01% Tween 20). Evaluation compound solutions having a 2-fold concentration (10 concentrations of 3.16-fold dilutions from 0.3 μmol/L, buffer (20 mM Tris-HCl pH 7.5, 150 mM NaCl, 1 mM CaCl2, 1 mM MgCl2, and 1 mM MnCl2)) and a 4 μg/mL biotinylated vitronectin solution (vitronectin (Upstate Biotechnology Inc.) was labeled with EZ-Link Sulfo-NHS-Biotinylation Kit (Pierce/Thermo Fisher Scientific Inc.) and then concentration-adjusted) were each added at 50 μL/well, and the plate was shaken at room temperature for 2 hours. After washing with PBST, a 0.2 μg/mL avidin peroxidase (Pierce/Thermo Fisher Scientific Inc.) solution was added thereto, and the plate was shaken at room temperature for 1 hour. After washing with PBST, color was developed by an o-phenylenediamine (Sigma-Aldrich Inc.) solution (the reaction was terminated by the addition of 4 mol/L sulfuric acid), and the absorbance was measured (490 nm, Reference: 595 nm). The IC50 value was calculated using XLfit 3.0 (ID Business Solutions Ltd.). RGDfV (Bachem AG) was measured in duplicate as a QC sample for each plate.

Integrin αvβ3 = target: T2, Integrin αvβ3 (Homo sapiens, UniProt P05106+P06756); assay: Integrin αvβ3 binding affinity test; details: inhibition of biotinylated vitronectin binding to immobilized αvβ3; read-out: IC50 value αv β3
T2 construct: purchased Chemicon International, Inc
Procedure: as §1, with “αvβ3” for “αvβ5”, “T-PBS (PBS containing 0.05%” for “PBST (10 mM Na2HPO4 pH 7.5, 150 mM NaCl, and 0.01%”, “T-PBS,” for “PBST,”

T1 sequence (P06756 31-889 limits assumed): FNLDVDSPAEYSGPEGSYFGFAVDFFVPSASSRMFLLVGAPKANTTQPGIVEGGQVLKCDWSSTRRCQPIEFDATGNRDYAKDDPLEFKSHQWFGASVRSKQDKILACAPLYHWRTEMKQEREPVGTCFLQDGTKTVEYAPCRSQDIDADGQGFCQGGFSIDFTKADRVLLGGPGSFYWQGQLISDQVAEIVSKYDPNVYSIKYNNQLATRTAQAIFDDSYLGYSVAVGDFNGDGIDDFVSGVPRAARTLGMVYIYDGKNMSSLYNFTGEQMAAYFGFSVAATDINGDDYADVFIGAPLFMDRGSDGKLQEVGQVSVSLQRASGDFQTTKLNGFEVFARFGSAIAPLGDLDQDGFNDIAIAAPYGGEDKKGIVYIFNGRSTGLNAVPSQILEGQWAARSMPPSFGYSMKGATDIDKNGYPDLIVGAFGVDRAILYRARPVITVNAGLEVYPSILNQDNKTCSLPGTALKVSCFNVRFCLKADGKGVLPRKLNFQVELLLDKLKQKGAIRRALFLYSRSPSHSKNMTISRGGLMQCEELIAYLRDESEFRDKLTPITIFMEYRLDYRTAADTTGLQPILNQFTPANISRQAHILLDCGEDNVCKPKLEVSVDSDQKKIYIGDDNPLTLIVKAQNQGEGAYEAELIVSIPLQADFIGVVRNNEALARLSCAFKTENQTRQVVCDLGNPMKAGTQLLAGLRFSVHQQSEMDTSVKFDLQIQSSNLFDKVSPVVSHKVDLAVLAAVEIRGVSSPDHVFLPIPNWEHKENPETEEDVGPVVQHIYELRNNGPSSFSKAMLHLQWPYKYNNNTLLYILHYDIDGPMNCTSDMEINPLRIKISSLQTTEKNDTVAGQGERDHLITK
T1 sequence (P06756 891-1048 partner limits assumed): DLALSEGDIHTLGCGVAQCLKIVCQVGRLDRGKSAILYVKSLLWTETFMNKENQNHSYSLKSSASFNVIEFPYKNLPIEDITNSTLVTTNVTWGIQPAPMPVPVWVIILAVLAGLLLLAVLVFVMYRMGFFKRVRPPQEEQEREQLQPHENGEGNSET
T1 sequence (P18084 24-799): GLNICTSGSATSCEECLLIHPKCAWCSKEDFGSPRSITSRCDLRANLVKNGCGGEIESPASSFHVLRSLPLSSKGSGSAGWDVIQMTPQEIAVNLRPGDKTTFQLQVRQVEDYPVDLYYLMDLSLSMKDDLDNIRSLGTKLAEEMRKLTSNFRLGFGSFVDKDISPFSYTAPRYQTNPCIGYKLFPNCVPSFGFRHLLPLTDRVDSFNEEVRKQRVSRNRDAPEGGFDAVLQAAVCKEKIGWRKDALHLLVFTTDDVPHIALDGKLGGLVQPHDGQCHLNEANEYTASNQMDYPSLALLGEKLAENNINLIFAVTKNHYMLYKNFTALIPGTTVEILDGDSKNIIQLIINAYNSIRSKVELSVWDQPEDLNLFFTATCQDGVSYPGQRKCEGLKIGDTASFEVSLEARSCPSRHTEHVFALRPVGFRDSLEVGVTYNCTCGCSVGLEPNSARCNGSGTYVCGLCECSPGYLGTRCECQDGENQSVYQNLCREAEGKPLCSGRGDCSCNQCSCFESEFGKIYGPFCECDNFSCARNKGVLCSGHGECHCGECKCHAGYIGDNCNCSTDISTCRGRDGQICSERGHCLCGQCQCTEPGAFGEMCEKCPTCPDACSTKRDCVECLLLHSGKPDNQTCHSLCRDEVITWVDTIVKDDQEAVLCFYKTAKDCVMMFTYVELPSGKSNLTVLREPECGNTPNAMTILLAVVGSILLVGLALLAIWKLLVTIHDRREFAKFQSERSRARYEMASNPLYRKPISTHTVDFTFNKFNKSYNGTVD
T2 sequence (P06756 31-889 limits assumed): as the sequence (P06756 31-889 limits assumed) above
T2 sequence (P06756 891-1048 partner limits assumed): as the sequence (P06756 891-1048 partner limits assumed) above
T2 sequence (P05106 27-788): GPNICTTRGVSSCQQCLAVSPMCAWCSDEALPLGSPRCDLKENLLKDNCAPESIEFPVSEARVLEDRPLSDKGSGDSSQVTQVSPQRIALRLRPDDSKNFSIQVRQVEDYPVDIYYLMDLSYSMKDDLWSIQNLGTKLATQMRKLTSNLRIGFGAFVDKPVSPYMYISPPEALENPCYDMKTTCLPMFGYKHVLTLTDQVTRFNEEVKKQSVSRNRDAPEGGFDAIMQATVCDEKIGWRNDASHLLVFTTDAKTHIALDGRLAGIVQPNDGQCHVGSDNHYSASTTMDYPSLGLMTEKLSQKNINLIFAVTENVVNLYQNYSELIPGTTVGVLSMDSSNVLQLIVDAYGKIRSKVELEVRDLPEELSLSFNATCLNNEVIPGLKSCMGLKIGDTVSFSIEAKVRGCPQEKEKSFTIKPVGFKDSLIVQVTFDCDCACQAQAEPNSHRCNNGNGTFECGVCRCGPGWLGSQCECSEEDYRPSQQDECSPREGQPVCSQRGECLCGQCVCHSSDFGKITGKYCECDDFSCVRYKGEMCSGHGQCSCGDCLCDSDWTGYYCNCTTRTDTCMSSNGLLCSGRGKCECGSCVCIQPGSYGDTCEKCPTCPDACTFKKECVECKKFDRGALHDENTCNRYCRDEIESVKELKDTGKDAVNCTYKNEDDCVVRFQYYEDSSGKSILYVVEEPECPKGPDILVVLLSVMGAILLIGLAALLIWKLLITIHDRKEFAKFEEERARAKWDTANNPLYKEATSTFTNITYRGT

| SMILES | IC50 (Integrin αvβ5) | IC50 (Integrin αvβ3) |
| --- | --- | --- |
| Cc1cc(OCCCC(=O)NCCNC(=O)[C@H](CS(=O)(=O)O)NC(=O)[C@H](CS(=O)(=O)O)NC(=O)CN2CCN(CC(=O)O)CCN(CC(=O)O)CCN(CC(=O)O)CC2)cc(C)c1S(=O)(=O)N[C@@H](CNC(=O)c1ccc(CCc2ccc3c(n2)NCCC3)cc1)C(=O)O [Compound A8, 2,2′,2″-(10-((4R,7R)-16-(4-(N—((S)-1-carboxy-2-(4-(2-(5,6,7,8-tetrahydro-1,8-naphthyridin-2-yl)ethyl)benzamido)ethyl)sulfamoyl)-3,5-dimethylphenoxy)-2,5,8,13-tetraoxo-4,7-bis(sulfomethyl)-3,6,9,12-tetraazahexadecyl)-1,4,7,10-tetraazacyclododecane-1,4,7-triyl)triacetic acid] | < 1 nM | < 1 nM |
| Cc1cc(OCCCC(=O)NCCNC(=O)[C@H](CS(=O)(=O)O)NC(=O)CN2CCN(CC(=O)O)CCN(CC(=O)O)CCN(CC(=O)O)CC2)cc(C)c1S(=O)(=O)N[C@@H](CNC(=O)c1ccc(CCc2ccc3c(n2)NCCC3)cc1)C(=O)O [Compound B2, 2,2′,2″-(10-(2-(((R)-1-((2-(4-(4-(N—((S)-1-carboxy-2-(4-(2-(5,6,7,8-tetrahydro-1,8-naphthyridin-2-yl)ethyl)benzamido)ethyl)sulfamoyl)-3,5-dimethylphenoxy)butanamido)ethyl)amino)-1-oxo-3-sulfopropan-2-yl)amino)-2-oxoethyl)-1,4,7,10-tetraazacyclododecane-1,4,7-triyl)triacetic acid] | < 1 nM | < 1 nM |
| Cc1cc(OCCCC(=O)NCCNC(=O)COCCOCCNC(=O)CN2CCN(CC(=O)O)CCN(CC(=O)O)CCN(CC(=O)O)CC2)cc(C)c1S(=O)(=O)N[C@@H](CNC(=O)c1ccc(CCc2ccc3c(n2)NCCC3)cc1)C(=O)O [Compound D3, (S)-2,2′,2′-(10-(19-(4-(N-(1-carboxy-2-(4-(2-(5,6,7,8-tetrahydro-1,8-naphthyridin-2-yl)ethyl)benzamido)ethyl)sulfamoyl)-3,5-dimethylphenoxy)-2,11,16-trioxo-6,9-dioxa-3,12,15-triazanonadecyl)-1,4,7,10-tetraazacyclododecane-1,4,7-triyl)triacetic acid] | < 1 nM | < 1 nM |
| Cc1cc(OCCCC(=O)NCCNC(=O)COCCOCCNC(=O)COCCOCCNC(=O)CN2CCN(CC(=O)O)CCN(CC(=O)O)CCN(CC(=O)O)CC2)cc(C)c1S(=O)(=O)N[C@@H](CNC(=O)c1ccc(CCc2ccc3c(n2)NCCC3)cc1)C(=O)O [Compound F3, (S)-2,2′,2″-(10-(28-(4-(N-(1-carboxy-2-(4-(2-(5,6,7,8-tetrahydro-1,8-naphthyridin-2-yl)ethyl)benzamido)ethyl)sulfamoyl)-3,5-dimethylphenoxy)-2,11,20,25-tetraoxo-6,9,15,18-tetraoxa-3,12,21,24-tetraazaoctacosyl)-1,4,7,10-tetraazacyclododecane-1,4,7-triyl)triacetic acid] | < 1 nM | < 1 nM |
| Cc1cc(OCCCC(=O)NCCNC(=O)COCCOCCNC(=O)[C@H](CS(=O)(=O)O)NC(=O)CN2CCN(CC(=O)O)CCN(CC(=O)O)CCN(CC(=O)O)CC2)cc(C)c1S(=O)(=O)N[C@@H](CNC(=O)c1ccc(CCc2ccc3c(n2)NCCC3)cc1)C(=O)O [Compound G3, 2,2′,2″-(10-((R)-22-(4-(N—((S)-1-carboxy-2-(4-(2-(5,6,7,8-tetrahydro-1,8-naphthyridin-2-yl)ethyl)benzamido)ethyl)sulfamoyl)-3,5-dimethylphenoxy)-2,5,14,19-tetraoxo-4-(sulfomethyl)-9,12-dioxa-3,6,15,18-tetraazadocosyl)-1,4,7,10-tetraazacyclododecane-1,4,7-triyl)triacetic acid] | < 1 nM | < 1 nM |
| Cc1cc(OCCCC(=O)NCCNC(=O)[C@H](CS(=O)(=O)O)NC(=O)CCC(NC(=O)CN2CCN(CC(=O)O)CCN(CC(=O)O)CCN(CC(=O)O)CC2)C(=O)N[C@@H](CS(=O)(=O)O)C(=O)NCCNC(=O)CCCOc2cc(C)c(S(=O)(=O)N[C@@H](CNC(=O)c3ccc(CCc4ccc5c(n4)NCCC5)cc3)C(=O)O)c(C)c2)cc(C)c1S(=O)(=O)N[C@@H](CNC(=O)c1ccc(CCc2ccc3c(n2)NCCC3)cc1)C(=O)O (stereo partly drawn) [Compound H9] | < 1 nM | < 1 nM |
| O=C(O)CC(c1cncc(OCCCC(=O)NCCNC(=O)[C@H](CS(=O)(=O)O)NC(=O)[C@H](CS(=O)(=O)O)NC(=O)CN2CCN(CC(=O)O)CCN(CC(=O)O)CCN(CC(=O)O)CC2)c1)n1ccc2cc(OCCc3ccc4c(n3)NCCC4)ccc21 (stereo partly drawn) [Compound I21, 2,2′,2″-(10-((4R,7R)-16-((5-(2-carboxy-1-(5-(2-(5,6,7,8-tetrahydro-1,8-naphthyridin-2-yl)ethoxy)-1H-indol-1-yl)ethyl)pyridin-3-yl)oxy)-2,5,8,13-tetraoxo-4,7-bis(sulfomethyl)-3,6,9,12-tetraazahexadecyl)-1,4,7,10-tetraazacyclododecane-1,4,7-triyl)triacetic acid] | < 1 nM | < 1 nM |
| O=C(O)CC(c1cncc(OCCCC(=O)NCCNC(=O)[C@H](CS(=O)(=O)O)NC(=O)[C@H](CS(=O)(=O)O)NC(=O)CN2CCN(CC(=O)O)CCN(CC(=O)O)CCN(CC(=O)O)CC2)c1)n1ccc2c(CCc3ccc4c(n3)NCCC4)cccc21 (stereo partly drawn) [Compound J9, 2,2′,2″-(10-((4R,7R)-16-((5-(2-carboxy-1-(4-(2-(5,6,7,8-tetrahydro-1,8-naphthyridin-2-yl)ethyl)-1H-indol-1-yl)ethyl)pyridin-3-yl)oxy)-2,5,8,13-tetraoxo-4,7-bis(sulfomethyl)-3,6,9,12-tetraazahexadecyl)-1,4,7,10-tetraazacyclododecane-1,4,7-triyl)triacetic acid] | 1 to 10 nM | < 1 nM |
| Cc1cc(OCCCC(=O)NCCNC(=O)[C@H](CS(=O)(=O)O)NC(=O)CN2CCN(CC(=O)O)CCN(CC(=O)O)CCN(CC(=O)O)CC2)cc(C)c1S(=O)(=O)N[C@H](CNC(=O)CCCCc1ccc2c(n1)NCCC2)C(=O)O [Compound K8, 2,2′,2′-(10-(2-(((R)-1-((2-(4-(4-(N—((R)-1-carboxy-2-(5-(5,6,7,8-tetrahydro-1,8-naphthyridin-2-yl)pentanamido)ethyl)sulfamoyl)-3,5-dimethylphenoxy)butanamido)ethyl)amino)-1-oxo-3-sulfopropan-2-yl)amino)-2-oxoethyl)-1,4,7,10-tetraazacyclododecane-1,4,7-triyl)triacetic acid] | 1 to 10 nM | < 1 nM |
| Cc1cc(OCCCC(=O)NCCNC(=O)[C@H](CS(=O)(=O)O)NC(=O)CC[C@H](NC(=O)CN2CCN(CC(=O)O)CCN(CC(=O)O)CCN(CC(=O)O)CC2)C(=O)N[C@@H](CS(=O)(=O)O)C(=O)NCCNC(=O)CCCOc2cc(C)c(S(=O)(=O)N[C@@H](CNC(=O)c3ccc(CCc4cccc(N)n4)cc3)C(=O)O)c(C)c2)cc(C)c1S(=O)(=O)N[C@@H](CNC(=O)c1ccc(CCc2cccc(N)n2)cc1)C(=O)O [Compound L10] | < 1 nM | < 1 nM |
| Cc1cc(OCCCC(=O)NCCNC(=O)[C@H](CS(=O)(=O)O)NC(=O)CN2CCN(CC(=O)O)CCN(CC(=O)O)CCN(CC(=O)O)CC2)cc(C)c1S(=O)(=O)N[C@@H](CNC(=O)c1ccc(CCc2cccc(N)n2)cc1)C(=O)O [Compound M2, 2,2′,2″-(10-(2-(((R)-1-((2-(4-(4-(N—((S)-2-(4-(2-(6-aminopyridin-2-yl)ethyl)benzamido)-1-carboxyethyl)sulfamoyl)-3,5-dimethylphenoxy)butanamido)ethyl)amino)-1-oxo-3-sulfopropan-2-yl)amino)-2-oxoethyl)-1,4,7,10-tetraazacyclododecane-1,4,7-triyl)triacetic acid] | < 1 nM | < 1 nM |
| Cc1cc(OCCCC(=O)NCCNC(=O)[C@H](CS(=O)(=O)O)NC(=O)[C@H](CS(=O)(=O)O)NC(=O)CN2CCN(CC(=O)O)CCN(CC(=O)O)CCN(CC(=O)O)CC2)cc(C)c1S(=O)(=O)N[C@@H](CNC(=O)c1ccc(CCc2cccc(N)n2)cc1)C(=O)O [Compound N3, 2,2′,2″-(10-((4R,7R)-16-(4-(N—((S)-2-(4-(2-(6-aminopyridin-2-yl)ethyl)benzamido)-1-carboxyethyl)sulfamoyl)-3,5-dimethylphenoxy)-2,5,8,13-tetraoxo-4,7-bis(sulfomethyl)-3,6,9,12-tetraazahexadecyl)-1,4,7,10-tetraazacyclododecane-1,4,7-triyl)triacetic acid] | < 1 nM | < 1 nM |
